Here are results for 4 molecules from patent US20130123271A1, “HETEROCYCLIC COMPOUNDS, THEIR PREPARATION AND THERAPEUTIC APPLICATION” (FOVEA PHARMACEUTICALS, priority 2010, published 2013).

For one series, the target named is Src/Lyn (h) (Homo sapiens, UniProt P12931). The series is described as follows: In vitro potency Src/Lyn (h), Table 2. Format: biochemical.
For a further series, the target named is h Src (Homo sapiens, UniProt P12931). The series is described as follows: LC3000 Src assay (off-chip incubation mobility-shift kinase assay, Caliper LabChip). Format: biochemical. Particulars: ATP at KM apparent. Here is the method:
The screening and profiling experiments described here were performed using Caliper Life Sciences' proprietary LabChip™ technology. Caliper LC3000 and EZ Reader II instruments are widely used throughout the drug discovery process for assay development, primary screening, selectivity screening, generation of Structure-Activity Relationships (SARs) and Mechanism of Action (MOA) studies. The LabChip™ technology is particularly well suited for enzymatic ‘targets’ such as kinases, proteases, phosphatases, histone deacetylases (HDAC), phosphodiesterases (PDE), and acyl-transferases. The key benefit of the technology is the separation and direct measurement of substrates and products, which allows for higher signal-to-noise ratios and fewer false positive/negative results. This direct measurement also allows for the identification and elimination of enzymatic activities that are not associated with the kinase reaction of interest.
The off-chip incubation mobility-shift kinase assay uses a microfluidic chip to measure the conversion of a fluorescent peptide substrate to a phosphorylated product. The reaction mixture, from a microtiter plate well, is introduced through a capillary sipper onto the chip, where the nonphosphorylated substrate and phosphorylated product are separated by electrophoresis and detected via laser-induced fluorescence. […] The phosphorylated product migrates through the chip faster than the non-phosphorylated substrate, and signals from the two forms of the peptide appear as distinct peaks. Caliper's data analysis software (HTSWA) determines peak heights, from which the ratio of product to the peak sum P/(P+S) and percent (%) conversion is calculated. This value is used to compare compound wells to control wells present on the plate, and thereby determine the % inhibition values for the compound. The formula used to calculate % inhibition is as follows, where C100% is the average % conversion of the 100% activity wells and C0% is the average % conversion of the 0% activity wells:
(1-(%conversionofsample—C0%)/(C100%−C0%))*100
Compounds were dissolved in 100% DMSO and diluted to 25× the final desired screening concentration. Serial dilutions were performed to obtain the concentrations specified for particular studies. One μl of each concentration was transferred, in duplicate, to a 384-well Greiner microtiter plate. Generally, 12 μL of enzyme buffer containing purified kinase (various suppliers), 100 mM HEPES, pH 7.5, 1 mM DTT (Calbiochem, 2333153), 10 mM MgCl2 (Sigma, M-1028) or 10 mM MnCl2 (Sigma, M-1787) (assay specific), and 0.002% Brij-35 (Sigma, B4184) was added to each well. Compound and enzyme were allowed to pre-incubate for 15 minutes. 12 μL of peptide/ATP buffer containing 100 mM HEPES, pH 7.5, 1.5 μM fluorescein-labeled peptide (specific to kinase of interest), ATP (at KM apparent, Sigma, A9187), and 0.002% Brij-35 was then added to each well to initiate the reaction. Generally, reactions were incubated for 1-1.5 hours at room temperature to obtain adequate (15-40%) conversion of peptide to phosphorylated product in the linear range of the reaction. Reactions were terminated with the addition of 45 μL of Stop Buffer (containing 20 mM EDTA). Plates were then read on the LabChip 3000 using a 12-sipper LabChip. % conversion values and % inhibition values were obtained as described and IC50 curves of compounds were generated using Graphpad Prism Version 4 or 5.01. A nonlinear curve fit using the sigmoidal dose response—variable slope fit was used to graph IC50 curves and determine IC50 values and hillslopes.

The nature of another series: Colour of the compound. Format: physicochemical. To be noted: powder.
The nature of series [1]: Ussing chamber permeation study through rabbit cornea. To be noted: 37° C., 0.5 cm2 rabbit cornea. Format: in vitro ADME. How it is done: Ussing chambers were used for the permeation study each day of experiment.
3 mL of solution were placed in donor side of Ussing chambers and 3 mL of Ringer solution were in receiver side. Freshly removed rabbit corneal tissue were placed between the two half chambers.
Temperature was maintained at 37° C. during all the flux study and oxygenation was provided by a continuous perfusion of carbogen (oxygen/carbonic acid) (95/5),
Rabbits were euthanized and the 6 corneas were removed and used immediately. 500 μL of receptor side liquid were removed from Ussing chambers and replaced by fresh buffer. The samples were analyzed immediately (less than 10 hours after collection).
100 μL of donor side liquid were removed from Ussing chambers and not replaced. The samples were diluted immediately (less than 1 hour) after collection and analyzed less than 10 hours after dilution. Analysis was performed on HPLC (Stationary phase: C18 (Particle size: 3 μm Length: 5 cm, using a gradient from 5 to 95% ACN/water (0.1% formic acid)).
At the end of the sampling period, all corneas were discarded.

Series [2] deals with choroidal neovascularisation. The series is described as follows: Rat model of laser-induced choroidal neovascularization (CNV). Format: in vivo, rat (Brown Norway). To be noted: topical solution 6 mg/mL (10 μL) two times daily, 14 days after laser induction. How it is done:
We investigated the efficacy of topical administration of compound 25 of the invention in reducing choroidal neovascularisation in the rat (Brown Norway, 8 weeks of age).
On day 1, CNV was performed by laser photocoagulation-induced rupture of Bruch's membrane as previously described (Edelman and Casto 2000). An Argon green laser irradiation was delivered through the slit lamp for induce photocoagulation. In each eye, 6-7 focal laser spots were applied concentrically approximately two optic discs from the center. Immediately afterwards, rats were treated with topical solution 6 mg/mL (10 μL) two times daily until sacrifice. 14 days after laser induction of CNV blood vessels were visualized on retinal pigment epithelium-choroid-sclera flat-mount by immunostaining with isolectin B4.
Assessment of CNV response to treatment was performed after capture and area measurement of immunostained vessels representing CNV at the site of laser burn.
Pixel area of vascular budding was traced by 2 trained masked investigators and converted to μm^2.

Series [3] is described as follows: Solubility in HPbCD 7% pH 5. Format: physicochemical. Particulars: HPbCD 7% solution, aqueous with cosolvent or surfactant or cyclodextrin, read-out: Solubility HPbCD 7% pH 5 (mg/ml) measured.

Structures are written as SMILES. Values after ≈ are worked out from the molar mass of the structure shown.

h Src, sequence (P12931 whole entry): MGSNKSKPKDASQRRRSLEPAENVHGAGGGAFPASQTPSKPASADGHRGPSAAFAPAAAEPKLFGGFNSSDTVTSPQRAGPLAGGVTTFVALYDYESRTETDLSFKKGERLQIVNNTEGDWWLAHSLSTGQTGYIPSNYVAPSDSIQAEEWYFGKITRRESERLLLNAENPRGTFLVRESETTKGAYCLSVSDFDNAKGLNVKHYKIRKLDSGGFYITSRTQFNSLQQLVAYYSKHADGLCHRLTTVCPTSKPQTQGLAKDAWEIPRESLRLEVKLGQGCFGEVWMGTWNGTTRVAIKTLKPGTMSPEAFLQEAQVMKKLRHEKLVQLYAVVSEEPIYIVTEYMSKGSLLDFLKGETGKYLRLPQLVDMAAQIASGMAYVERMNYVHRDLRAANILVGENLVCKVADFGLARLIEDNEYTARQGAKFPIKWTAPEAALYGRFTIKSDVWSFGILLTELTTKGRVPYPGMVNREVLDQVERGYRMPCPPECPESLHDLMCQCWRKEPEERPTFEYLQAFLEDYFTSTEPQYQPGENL
Src/Lyn (h), sequence (P12931 whole entry): as above

For the molecule `Oc1ccc(Cl)c(-c2ccc3nc(Nc4ccc(OCCN5CCCC5)nc4)nn3c2)c1` [Compound 25, 4-Chloro-3-{2-[6-(2-pyrrolidin-1-yl-ethoxy)-pyridin-3-ylamino]-[1,2,4]triazolo[1,5-a]pyridin-6-yl}-phenol], the IC50 against Src/Lyn (h) and on h Src was 23 nM throughout. For the same molecule, the Colour result in “Colour of the compound” is “White”. Further, the “Flux between 2 and 4 hours through 0.5 cm2 of rabbit cornea (μg/h/cm2)” value in series [1] is 14 μg/h/cm2. Further, the “reduction of CNV compared to control” value in series [2] was 15%. Also, the solubility in series [3] was determined as 6.5 mg/mL (≈ 14.4 mM).
Take `OCCN1CCN(c2ccc(Nc3nc4ccc(-c5cc(O)ccc5Cl)cn4n3)cn2)CC1` [compound 10, 4-Chloro-3-(2-{6-[4-(2-hydroxy-ethyl)-piperazin-1-yl]-pyridin-3-ylamino}-[1,2,4]triazolo[1,5-a]pyridin-6-yl)-phenol]: the IC50 on Src/Lyn (h) and on h Src was 14 nM each time. For the same molecule, in the series “Colour of the compound”, the Colour entry was “White”. Also, the “Flux between 2 and 4 hours through 0.5 cm2 of rabbit cornea (μg/h/cm2)” value in series [1] was 30 μg/h/cm2. Further, the solubility in series [3] turned out to be 5.69 mg/mL (≈ 12.2 mM).
`OCc1cc(Nc2nc3ccc(-c4cc(O)ccc4Cl)cn3n2)ccn1` [compound 13, 4-Chloro-3-[2-(2-hydroxymethyl-pyridin-4-ylamino)-[1,2,4]triazolo[1,5-a]pyridin-6-yl]-phenol]: the IC50 at Src/Lyn (h) and on h Src was 27 nM throughout. The Colour result in “Colour of the compound” is given as “White”. Also, in series [1], the “Flux between 2 and 4 hours through 0.5 cm2 of rabbit cornea (μg/h/cm2)” value turned out to be 13 μg/h/cm2. Besides, in series [3], the solubility stood at 2.38 mg/mL (≈ 6.47 mM).
For the molecule `OCc1cc(CO)cc(Nc2ncc3cc(-c4cc(O)ccc4Cl)ccc3n2)c1` [compound 16, 3-[2-(3,5-Bis-hydroxymethyl-phenylamino)-quinazolin-6-yl]-4-chloro-phenol], the IC50 against Src/Lyn (h) was less than 1 nM; on h Src it was 0.1 nM. In addition, in the series “Colour of the compound”, the Colour result is “Pale”. In series [1], the “Flux between 2 and 4 hours through 0.5 cm2 of rabbit cornea (μg/h/cm2)” value turned out to be 17 μg/h/cm2. Also, the solubility in series [3] turned out to be 1.2 mg/mL (≈ 2.94 mM).
